Measurements as given in US4101676A, “Diphenylpropylamines to treat depression” (Beecham Group Limited, priority 1973, dated 1978).
Structures can show the parent of a compound that is named as a salt.

Legend:
[1] = system: reserpine hypothermia; assay: Prevention of Reserpine Hypothermia; type: in vivo, mice (Carworth Europe male); details: for Δ^6 / Δ^24: mice, oral; for Δ^6: cumulative temperature difference from controls at 6 hours; for Δ^24: cumulative temperature difference from controls at 24 hours; for Reserpine Prevention Δ^6: 6 hours; for Reserpine Prevention Δ^24: 24 hours
Protocol: The method of Spencer [Antidepressant Drugs, 194 (1967) ] was used. Groups of ten mice are given oral doses of test compound 24 18 and 2 hours before an intravenous injection of reserpine base (Serpasil). Oral temperatures of the mice are taken immediately before administration of reserpine and then 2 4 6 and 24 hours afterwards.
Mean temperatures of groups given test compounds are compared with reserpinised controls using a Students t test. Compounds causing a significant difference at the level P < 0.001 are considered active. In order to quantify anti-reserpine activity cumulative temperature differences from controls at 6 hours and 24 hours (Δ^6 and Δ^24 ) are calculated.
(§1) Carworth Europe male mice are used for all experiments apart from that using the cat nictitating membrane and test compounds are administered orally as solutions in distilled water. Compounds for intravenous administration are dissolved in 0.9% saline apart from Reserpine which is dissolved in dilute acetic acid buffered to pH5. Unless otherwise stated, the dosing interval is one hour.
(§2) The Reserpine Prevention, Reserpine Reversal and Noradrenaline Uptake Inhibition tests were carried out as described in the previous Example. The Mydriasis tests was also as described in the previous Example but using 20 mg/kg doses of each compound after which a curve was plotted of percentage increase in pupil diameter vertus time and the percentage increase was integrated with respect to time for 0-120 minutes after dosing and the result expressed as a percentage.

[2] = system: reserpine hypothermia; assay: Reversal of Reserpine Hypothermia; type: in vivo, mice (Carworth Europe male); details: for Δ^6 / Δ^24: mice, subcutaneous; for Δ^6 / Reserpine Reversal Δ^6: 6 hours; for Δ^24 / Reserpine Reversal Δ^24: 24 hours
Protocol: Seventeen hours later the oral temperatures of the mice are taken and various doses of test compound or vehicle given subcutaneously. Temperatures are taken 1, 2, 4 6 and 24 hours later and the results are analysed as in Test 1 (The subcutaneous route is used for convenience as the very depressed reserpinised mice cannot be reliably dosed orally).
as §1, §2

[3] = system: pupil diameter (mydriasis, anticholinergic side effect); assay: Mydriatic Response in Mice (dose causing 200% increase in pupil size); type: in vivo; details: mice, intraperitoneal, at peak time
Protocol: Groups of five mice are pre-selected for uniformity of pupil diameter using a binocular microscope with a calibrated eye-piece. Pupil sizes are measured at various intervals after an intraperitoneal injection of test compound and at the peak time a curve plotted of percentage increase in pupil diameter versus log dose. […] Carworth Europe male mice are used for all experiments apart from that using the cat nictitating membrane and test compounds are administered orally as solutions in distilled water. […] Unless otherwise stated, the dosing interval is one hour.

[4] = molecular target: T1, Guinea Pig Ileum (Cavia porcellus); assay: pA2 Determination on Guinea Pig Ileum (antagonism to Acetylcholine); details: in vitro, read-out: pA2 on Iillium (converted)
T1 construct: from tissue; host or cells: guinea pig ileum
T1 sequence (H0W1Z3 1-590): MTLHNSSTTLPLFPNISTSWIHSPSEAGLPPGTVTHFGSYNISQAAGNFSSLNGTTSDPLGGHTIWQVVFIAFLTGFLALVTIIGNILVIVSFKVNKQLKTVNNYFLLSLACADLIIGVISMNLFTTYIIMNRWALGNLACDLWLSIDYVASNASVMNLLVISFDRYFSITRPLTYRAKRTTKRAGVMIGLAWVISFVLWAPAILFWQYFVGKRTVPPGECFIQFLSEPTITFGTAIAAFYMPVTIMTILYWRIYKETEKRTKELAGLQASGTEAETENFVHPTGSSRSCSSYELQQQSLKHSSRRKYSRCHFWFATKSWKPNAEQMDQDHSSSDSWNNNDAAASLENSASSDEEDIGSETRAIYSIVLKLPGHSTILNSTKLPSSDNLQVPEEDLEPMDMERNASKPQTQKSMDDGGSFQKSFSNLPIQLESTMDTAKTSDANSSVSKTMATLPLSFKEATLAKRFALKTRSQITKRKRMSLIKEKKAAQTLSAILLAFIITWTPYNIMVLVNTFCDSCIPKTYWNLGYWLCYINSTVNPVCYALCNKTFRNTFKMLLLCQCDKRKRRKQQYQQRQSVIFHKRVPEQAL
From the text: It is thus a means of expressing anticholinergic activity which is independent of the dose of Acetylcholine and the piece of tissue used. The method used is similar to that of Schild, [Brit. J. Pharmacol. 14 (1959) 48] the tissue being bathed in Tyrode solution and a dose response curved for Acetylcholine being obtained.

[5] = system: pupil diameter (mydriasis); assay: Mydriasis integral 0-120 minutes; type: in vivo, mice; details: mice, 20 mg/kg, 0-120 minutes
Protocol: Groups of five mice are pre-selected for uniformity of pupil diameter using a binocular microscope with a calibrated eye-piece. Pupil sizes are measured at various intervals after an intraperitoneal injection of test compound and at the peak time a curve plotted of percentage increase in pupil diameter versus log dose. From this the dose causing a 200% increase in pupil size (this lies on the linear part of the curve) is found
as §1, §2

[6] = system: Noradrenaline uptake; assay: Inhibition of Noradrenaline Uptake in vitro (brain synaptosomes); type: biochemical, male Wistar rats
Protocol: (§3) Synaptosomes are isolated from the brains of male Wistar rats (150-170g.) and monamine uptake determined by the method of Snyder and Coyle (1968) [Synder S. H. and Coyle J. T. J. Pharmac. exp. Ther. 165 (1968) 78-86]. Uptake was determined over a ten minute period instead of the normal five minutes.
as §2

[7] = system: 5-Hydroxytryptamine uptake; assay: Inhibition of 5-Hydroxytryptamine Uptake in vitro (brain synaptosomes); type: biochemical, male Wistar rats
Protocol: as §3

[8] = Pharmacology 2, dose 10 (unit not given)
[9] = Pharmacology 2, dose 20 (unit not given)
[10] = Pharmacology 2, dose 40 (unit not given)

CN(C)CC(O)C(c1ccccc1)c1ccc(Cl)cc1 (stereo not drawn) [CH3 CH3 H H Cl, 3-Dimethylamino-1-p-chlorophenyl-1-phenyl-propan-2-ol]
Δ^6 ([1]; 30 mg/kg): 13 °C | Δ^24 ([1]; 30 mg/kg): 22 °C | Δ^6 ([2]; 30 mg/kg): 9 °C | Δ^24 ([2]; 30 mg/kg): 11 °C | Mydriasis-Dose to cause 200% effect [3]: 40 mg/kg | Kb [4]: 10 µM

CN(Cc1ccccc1)CC(O)C(c1ccccc1)c1ccc(F)cc1 (stereo not drawn) [CH2C6H5 CH3 H H F, 3-(N-Benzyl,N-methylamino)-1-p-fluorophenyl-1-phenylpropan-2-ol]
Δ^6 ([1]; 30 mg/kg): 9 °C | Δ^24 ([1]; 30 mg/kg): 11 °C

CNCC(O)C(c1ccccc1)c1ccc(C)cc1 (stereo not drawn) [CH3 H H H CH3 HCl, 3-N-methylamino-1-phenyl-1-p-tolyl-propan-2-ol]
Δ^6 ([1]; 100 mg/kg): 6 °C | Δ^24 ([1]; 100 mg/kg): 6 °C

CNCC(O)C(c1ccccc1)c1ccc(F)cc1 (stereo not drawn) [H CH3 H H F, 3-Methylamino-1-p-fluorophenyl-1-phenyl-propan-2-ol]
Δ^6 ([1]; 30 mg/kg): 12 °C | Δ^24 ([1]; 30 mg/kg): 21 °C | Mydriasis-Dose to cause 200% effect [3]: 92 mg/kg | Kb [4]: 100 µM

CN(Cc1ccccc1)CC(C)(O)C(c1ccccc1)c1ccccc1 (stereo not drawn) [CH3 H N(CH3)CH2C6H5, 3-(N-Benzyl N-methylamino)-2-methyl-1,1-diphenyl-propan-2-ol]
Δ^6 ([1]; 100 mg/kg): 6 °C | Δ^24 ([1]; 100 mg/kg): 8 °C

CC(=O)OC(CN(C)C)C(c1ccccc1)c1ccccc1 (stereo not drawn) [H COCH3 N(CH3)2, 2-Acetoxy-3-dimethylamino-1,1-diphenyl-propane]
Δ^6 ([1]; 20 mg/kg): > 10 °C | Δ^24 ([1]; 20 mg/kg): > 10 °C

CCN(CC)CC(O)C(c1ccccc1)c1ccccc1 (stereo not drawn) [C2H5 C2H5 H H H HCl]
Δ^6 ([1]; 30 mg/kg): 11 °C | Δ^24 ([1]; 30 mg/kg): 11 °C

CN(C)CC(O)C(c1ccccc1)c1ccccc1 (racemic) [Compound A, (±) -3-Dimethylamino-1,1-diphenylpropan-2-ol]
Reserpine Prevention Δ^6 [1, 8]: 12 °C | Reserpine Prevention Δ^24 [1, 8]: 16 °C | Reserpine Prevention Δ^6 [1, 9]: 15 °C | Reserpine Prevention Δ^24 [1, 9]: 19 °C | Reserpine Prevention Δ^6 [1, 10]: 15 °C | Reserpine Prevention Δ^24 [1, 10]: 22 °C | Reserpine Reversal Δ^6 [2, 8]: 16 °C | Reserpine Reversal Δ^24 [2, 8]: 20 °C | Reserpine Reversal Δ^6 [2, 9]: 14 °C | Reserpine Reversal Δ^24 [2, 9]: 17 °C | Reserpine Reversal Δ^6 [2, 10]: 15 °C | Reserpine Reversal Δ^24 [2, 10]: 20 °C | Mydriasis Integral Percent 120 Mins. [5]: 7400% | Inhibition of Noradrenaline Uptake In Vitro % ([6]; 10^-6 molar (Pharmacology 2)): 63%

CN(C)CCCN1c2ccccc2CCc2ccccc21 [Imipramine HCl, reference compound]
Δ^6 ([1]; 30 mg/kg): 10 °C | Δ^24 ([1]; 30 mg/kg): 17 °C | Δ^6 ([2]; 10 mg/kg): 18 °C | Δ^24 ([2]; 10 mg/kg): 18 °C | Inhibition of Monoamine Uptake 5HT (%) ([7]; 10^-5 molar): 90% | Inhibition of Monoamine Uptake 5HT (%) ([7]; 10^-6 molar): 55% | Inhibition of Monoamine Uptake NA (%) ([6]; 10^-5 molar): 85% | Inhibition of Monoamine Uptake NA (%) ([6]; 10^-6 molar (Table 4)): 56% | Mydriasis-Dose to cause 200% effect [3]: 18 mg/kg | Kb [4]: 0.001 µM

CN(C)CC(O)C(c1ccccc1)c1ccc(F)cc1 (stereo not drawn) [CH3 CH3 H H F, 3-Dimethylamino-1-p-fluorophenyl-1-phenyl-propan-2-ol]
Δ^6 ([1]; 20 mg/kg): 11 °C | Δ^24 ([1]; 20 mg/kg): 15 °C | Δ^6 ([2]; 25 mg/kg): 17 °C | Δ^24 ([2]; 25 mg/kg): 23 °C | Inhibition of Monoamine Uptake 5HT (%) ([7]; 10^-5 molar): 85% | Inhibition of Monoamine Uptake 5HT (%) ([7]; 10^-6 molar): 60% | Inhibition of Monoamine Uptake NA (%) ([6]; 10^-5 molar): 80% | Inhibition of Monoamine Uptake NA (%) ([6]; 10^-6 molar (Table 4)): 59%

CNCC(C)(O)C(c1ccccc1)c1ccccc1 (stereo not drawn) [CH3 H NHCH3, 3-(N-methylamino)-2-methyl-1,1-diphenyl-propan-2-ol]
Δ^6 ([1]; 30 mg/kg): 7 °C | Δ^24 ([1]; 30 mg/kg): 13 °C
